Measurements as given in patent US11891634B2, “PDE5A destabilizing domains” (The Board of Trustees of the Leland Stanford Junior …, priority 2017, dated 2024).

Experiments:
Format in all cases: cell-based, human
[1] = system: HCT 116 cells transduced with the PDE5A DD derived GFP constructs; assay: Response to Vardenafil, GFP expression by FACS in HCT116; conditions: 48 hours, HCT116
Outline: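 HCT116 cells stably carrying lentiviral AcGFP fusions of PDE5A (535-860) mutants, sorted on mCherry, got DMSO or Vardenafil (10 μM, or 0.002–30 μM) for 48 h, and GFP MFI was read by flow cytometry. Basal expression is untreated GFP over parental autofluorescence; the stabilization ratio is treated over untreated MFI.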

[2] = system: HCT 116 cells transduced with the PDE5A DD derived GFP constructs; assay: Response to Tadalafil, GFP expression by FACS in HCT116; conditions: 48 hours, HCT116
Outline: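 HCT116 cells stably transduced (mCherry-sorted) with lentiviral PDE5A DD–AcGFP constructs, exposed to DMSO or Tadalafil 0.01–100 μM for 48 hrs. GFP mean fluorescence by FACS; stabilization ratio = ligand vs no-ligand signal, basal expression = no-ligand signal vs parental autofluorescence.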

[3] = system: HCT116 cells transduced with the constructs; assay: Response to Sildenafil, GFP expression by flow cytometry in HCT116; conditions: for MFI / Stabilization ratio with Sildenafil: 48 hours, HCT116
Outline: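 HCT116 cells stably expressing AcGFP-fused destabilizing domains from a lentiviral mCherry-marked vector (sorted on mCherry) were exposed to sildenafil at 0.01–100 μM for 48 hours. GFP mean fluorescence intensity was measured by flow cytometry.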

Substance: PDE5AN (#3): N-terminal DD 535-860 of PDE5A (Q589R, K633E, T712S, K852E, K795E), SEQ ID NO. 66, fused to AcGFP
- MFI ([1]; DMSO (no Vardenafil)): 8934
- Stabilization ratio ([1]; Table 10, 10 μM Vardenafil vs DMSO): stabilization ratios similar to those observed for sildenafil
- Stabilization ratio with Vardenafil ([1]; Vardenafil 0.002 μM vs DMSO): 1.0
- MFI ([1]; Vardenafil 0.002 μM): 8767
- MFI ([1]; Vardenafil 0.005 μM): 9620
- Stabilization ratio with Vardenafil ([1]; Vardenafil 0.014 μM vs DMSO): 1.2
- MFI ([1]; Vardenafil 0.014 μM): 10487
- Stabilization ratio with Vardenafil ([1]; Vardenafil 0.041 μM vs DMSO): 1.6
- MFI ([1]; Vardenafil 0.041 μM): 14086
- Stabilization ratio with Vardenafil ([1]; Vardenafil 0.123 μM vs DMSO): 2.3
- MFI ([1]; Vardenafil 0.123 μM): 20568
- Stabilization ratio with Vardenafil ([1]; Vardenafil 0.370 μM vs DMSO): 4.1
- MFI ([1]; Vardenafil 0.370 μM): 36786
- Stabilization ratio with Vardenafil ([1]; Vardenafil 1.111 μM vs DMSO): 7.4
- MFI ([1]; Vardenafil 1.111 μM): 66543
- Stabilization ratio with Vardenafil ([1]; Vardenafil 3.333 μM vs DMSO): 11.1
- MFI ([1]; Vardenafil 3.333 μM): 98986
- Stabilization ratio with Vardenafil ([1]; Vardenafil 10 μM vs DMSO): 13.4
- MFI ([1]; Vardenafil 10 μM): 119591
- MFI ([1]; Vardenafil 30 μM): 131667
- MFI ([2]; DMSO (no Tadalafil)): 6944
- expression of GFP (MFI) with increasing doses of Tadalafil ([2]; Tadalafil 0.01 μM to 100 μM): Tadalafil dose dependent increase in the MFI
- Stabilization ratio with Tadalafil ([2]; Tadalafil 0.01 μM vs DMSO): 1.0
- MFI ([2]; Tadalafil 0.01 μM): 6781
- Stabilization ratio with Tadalafil ([2]; Tadalafil 0.02 μM vs DMSO): 1.0
- MFI ([2]; Tadalafil 0.02 μM): 6685
- Stabilization ratio with Tadalafil ([2]; Tadalafil 0.05 μM vs DMSO): 1.0
- MFI ([2]; Tadalafil 0.05 μM): 7013
- Stabilization ratio with Tadalafil ([2]; Tadalafil 0.14 μM vs DMSO): 1.0
- MFI ([2]; Tadalafil 0.14 μM): 6988
- Stabilization ratio with Tadalafil ([2]; Tadalafil 0.41 μM vs DMSO): 1.1
- MFI ([2]; Tadalafil 0.41 μM): 7648
- Stabilization ratio with Tadalafil ([2]; Tadalafil 1.23 μM vs DMSO): 1.3
- MFI ([2]; Tadalafil 1.23 μM): 8973
- Stabilization ratio with Tadalafil ([2]; Tadalafil 3.7 μM vs DMSO): 2.0
- MFI ([2]; Tadalafil 3.7 μM): 14097
- Stabilization ratio with Tadalafil ([2]; Tadalafil 11.11 μM vs DMSO): 3.8
- MFI ([2]; Tadalafil 11.11 μM): 26560
- Stabilization ratio with Tadalafil ([2]; Tadalafil 33.33 μM vs DMSO): 7.2
- MFI ([2]; Tadalafil 33.33 μM): 49889
- Stabilization ratio with Tadalafil ([2]; Tadalafil 100 μM vs DMSO): 9.9
- MFI ([2]; Tadalafil 100 μM): 68532
- MFI ([3]; DMSO (no Sildenafil)): 9835
- Stabilization ratio with Sildenafil ([3]; Sildenafil 0.01 μM vs DMSO): 1.0
- MFI ([3]; Sildenafil 0.01 μM): 9888
- Stabilization ratio with Sildenafil ([3]; Sildenafil 0.02 μM vs DMSO): 1.0
- MFI ([3]; Sildenafil 0.02 μM): 10157
- Stabilization ratio with Sildenafil ([3]; Sildenafil 0.05 μM vs DMSO): 1.0
- MFI ([3]; Sildenafil 0.05 μM): 9952
- Stabilization ratio with Sildenafil ([3]; Sildenafil 0.14 μM vs DMSO): 1.1
- MFI ([3]; Sildenafil 0.14 μM): 10475
- Stabilization ratio with Sildenafil ([3]; Sildenafil 0.41 μM vs DMSO): 1.3
- MFI ([3]; Sildenafil 0.41 μM): 12302
- Stabilization ratio with Sildenafil ([3]; Sildenafil 1.23 μM vs DMSO): 1.7
- MFI ([3]; Sildenafil 1.23 μM): 16826
- Stabilization ratio with Sildenafil ([3]; Sildenafil 3.70 μM vs DMSO): 2.8
- MFI ([3]; Sildenafil 3.70 μM): 27542
- Stabilization ratio with Sildenafil ([3]; Sildenafil 11.11 μM vs DMSO): 5.4
- MFI ([3]; Sildenafil 11.11 μM): 52641
- Stabilization ratio with Sildenafil ([3]; Sildenafil 33.33 μM vs DMSO): 8.7
- MFI ([3]; Sildenafil 33.33 μM): 85509
- MFI ([3]; Sildenafil 100.00 μM): 103938
- Basal expression ([3]; Table 26, MFI with DMSO / parental HCT116, Sildenafil experiment): 7.6
